For 24 molecules, T/C results are on record in PubChem BioAssay AID330 (DTP/NCI, 2004).

Each structure is given as a SMILES string. “And” between values parts separate entries of the source, which are not always exact repeats. Equal entries are not always repeated. Toxic doses and inconclusive results are not listed.

The subject of the assay is P388 leukemia ip, CD2F1 mice, survival T/C. The assay can be described thus: NCI In Vivo Anticancer Drug Screen. Data for tumor model P388 Leukemia (intraperitoneal) in CD2F1 (CDF1) mice. The note with it: endpoint: median survival time, higher = longer survival. The method in brief:
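Mice carrying the transplanted tumor received test compound or vehicle. Survival was recorded in each group, and the value is the treated-group measurement divided by that of the vehicle-treated control group.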

[1] abbreviates: dose: 50.0 mg/kg/injection, schedule: Q01DX005 (ip), vehicle: Klucel (hydroxypropylcellulose) (HPC).
[2] abbreviates: dose: 50.0 mg/kg/injection, schedule: Q01DX009 (ip), vehicle: saline with Tween-80.
Where [3] appears, read: dose: 100.0 mg/kg/injection, schedule: Q01DX009 (ip), vehicle: saline with Tween-80.
The mark [4] stands for this setting: dose: 200.0 mg/kg/injection, schedule: Q01DX009 (ip), vehicle: saline with Tween-80.
Where [5] appears, read: dose: 60.0 mg/kg/injection, schedule: Q01DX005 (ip), vehicle: saline with Tween-80.
[6] abbreviates: dose: 120.0 mg/kg/injection, schedule: Q01DX005 (ip), vehicle: saline with Tween-80.
The mark [7] stands for this setting: dose: 240.0 mg/kg/injection, schedule: Q01DX005 (ip), vehicle: saline with Tween-80.
The mark [8] stands for this setting: dose: 50.0 mg/kg/injection, schedule: Q01DX005 (ip), vehicle: saline with Tween-80.
[9] abbreviates: dose: 100.0 mg/kg/injection, schedule: Q01DX005 (ip), vehicle: saline with Tween-80.
[10] abbreviates: dose: 200.0 mg/kg/injection, schedule: Q01DX005 (ip), vehicle: saline with Tween-80.

With `N#Cc1ccoc1`, the T/C is, setting by setting: (dose: 12.5 mg/kg/injection, schedule: Q01DX005 (ip), vehicle: Klucel (hydroxypropylcellulose) (HPC)) 93 % of control; (dose: 25.0 mg/kg/injection, schedule: Q01DX005 (ip), vehicle: Klucel (hydroxypropylcellulose) (HPC)) 102 % of control; under setting [1], 104 % of control.

With `COc1cccc(/C=C/C(=O)C(CN(C)C)CN(C)C)c1`, the T/C was 100 % of control (dose: 6.25 mg/kg/injection, schedule: Q01DX005 (ip), vehicle: saline) and 106 % of control (dose: 12.5 mg/kg/injection, schedule: Q01DX005 (ip), vehicle: saline).

As for `O=C1NC(=S)N/C1=C/c1ccc2c(c1)CCC2`, the T/C is 100 % of control (dose: 100.0 mg/kg/injection, schedule: Q01DX001 (ip), vehicle: saline with Tween-80); 100 % of control (dose: 200.0 mg/kg/injection, schedule: Q01DX001 (ip), vehicle: saline with Tween-80); 95 % of control (dose: 400.0 mg/kg/injection, schedule: Q01DX001 (ip), vehicle: saline with Tween-80).

As for `COc1c2ccoc2nc2c(O)c3c(c(CC=C(C)C)c12)OCO3`, the T/C (dose: 1.5 mg/kg/injection, schedule: Q01DX005 (ip), vehicle: Klucel (hydroxypropylcellulose) (HPC)) was 102 % of control; the T/C (dose: 3.0 mg/kg/injection, schedule: Q01DX005 (ip), vehicle: Klucel (hydroxypropylcellulose) (HPC)) is 104 % of control; the T/C (dose: 6.0 mg/kg/injection, schedule: Q01DX005 (ip), vehicle: Klucel (hydroxypropylcellulose) (HPC)) was 103 % of control; the T/C (dose: 11.88 mg/kg/injection, schedule: Q01DX005 (ip), vehicle: Klucel (hydroxypropylcellulose) (HPC)) is 86 % of control; the T/C (dose: 12.0 mg/kg/injection, schedule: Q01DX005 (ip), vehicle: Klucel (hydroxypropylcellulose) (HPC)) is 96 % of control; the T/C (dose: 47.5 mg/kg/injection, schedule: Q01DX005 (ip), vehicle: Klucel (hydroxypropylcellulose) (HPC)) is 86 % of control.

`CS/C(=C1/C(=O)N(c2ccccc2)N=C1c1ccc(Br)cc1)N1CC1`: the T/C (dose: 100.0 mg/kg/injection, schedule: Q04DX003 (ip), vehicle: Klucel (hydroxypropylcellulose) (HPC)) is 95 % of control and the T/C (dose: 200.0 mg/kg/injection, schedule: Q04DX003 (ip), vehicle: Klucel (hydroxypropylcellulose) (HPC)) is 101 % of control.

`C=CCNC(=S)N=Nc1c(O)[nH]c2ccccc12`: the T/C runs as follows: under setting [2], 94 % of control; under setting [3], 91 % of control; under setting [4], 88 % of control.

On to `COc1cc(C(=O)NOCc2cc3c(cc2Cl)OCO3)cc(OC)c1OC`, for which the T/C runs as follows: (dose: 100.0 mg/kg/injection, schedule: Q04DX003 (ip), vehicle: saline sonified) 90 % of control; (dose: 400.0 mg/kg/injection, schedule: Q04DX003 (ip), vehicle: saline sonified) 90 % of control.

Regarding `C/C(=C\N1CCN(c2ccc(Cl)cc2)C(C)C1)C(=O)c1ccccc1` (stereo not drawn), the T/C (dose: 100.0 mg/kg/injection, schedule: Q04DX003 (ip), vehicle: saline with Tween-80) is 94 % of control and the T/C (dose: 200.0 mg/kg/injection, schedule: Q04DX003 (ip), vehicle: saline with Tween-80) is 88 % of control.

On to `O=c1nc2n(c3nccnc13)CCS2`, for which the T/C by setting is: (dose: 12.5 mg/kg/injection, schedule: Q01DX009 (ip), vehicle: saline) 111 % of control; (dose: 25.0 mg/kg/injection, schedule: Q01DX009 (ip), vehicle: saline) 104 % of control; (dose: 50.0 mg/kg/injection, schedule: Q01DX009 (ip), vehicle: saline) 100 % of control.

With `O=[N+]([O-])c1c(Nc2ccccc2)nc(-c2ccccc2)nc1Nc1ccccc1`, the T/C is, setting by setting: (dose: 100.0 mg/kg/injection, schedule: Q04DX003 (ip), vehicle: saline) 90 % of control; (dose: 200.0 mg/kg/injection, schedule: Q04DX003 (ip), vehicle: saline) 92 % of control; (dose: 400.0 mg/kg/injection, schedule: Q04DX003 (ip), vehicle: saline) 90 % of control.

Regarding `Clc1ccc2oc(N3CCOCC3)nc2c1`, the T/C is 103 % of control under setting [5], 96 % of control under setting [6] and 87 % of control under setting [7].

On to `CC(=O)SC12CCCN1C(=O)C1CCCN1C2=O` (stereo not drawn), for which the T/C runs as follows: (dose: 100.0 mg/kg/injection, schedule: Q04DX002 (ip), vehicle: saline) 100 % of control; (dose: 200.0 mg/kg/injection, schedule: Q04DX002 (ip), vehicle: saline) 111 % of control; (dose: 400.0 mg/kg/injection, schedule: Q04DX002 (ip), vehicle: saline) 117 % of control.

For the molecule `Cc1cccc(Cl)c1NC1=NCCO1`, the T/C (dose: 6.25 mg/kg/injection, schedule: Q04DX003 (ip), vehicle: saline with Tween-80) was 95 % of control; the T/C (dose: 12.5 mg/kg/injection, schedule: Q04DX003 (ip), vehicle: saline with Tween-80) is 95 % of control; the T/C (dose: 25.0 mg/kg/injection, schedule: Q04DX003 (ip), vehicle: saline with Tween-80) was 100 % of control.

As for `CC1=NCC[N-]CC[N-]CCN=C(C)C2CCCC1[N-]2.[Mn+3]`, the T/C runs as follows: (dose: 7.5 mg/kg/injection, schedule: Q01DX005 (ip), vehicle: saline with Tween-80) 100 % of control; (dose: 15.0 mg/kg/injection, schedule: Q01DX005 (ip), vehicle: saline with Tween-80) 96 % of control; (dose: 30.0 mg/kg/injection, schedule: Q01DX005 (ip), vehicle: saline with Tween-80) 96 % of control.

Consider `N#Cc1ccc(OCCCCCOc2ccc(C#N)cc2)cc1`, for which the T/C is, setting by setting: (dose: 25.0 mg/kg/injection, schedule: Q01DX009 (ip), vehicle: saline with Tween-80) 108 % of control; under setting [2], 100 % of control; under setting [3], 97 % of control; under setting [4], 99 % of control.

`O=c1sc2ccccc2n1CN(CCO)Cn1c(=O)sc2ccccc21`: the T/C was 91 % of control under setting [1]; 89 % of control (dose: 100.0 mg/kg/injection, schedule: Q01DX005 (ip), vehicle: Klucel (hydroxypropylcellulose) (HPC)); 90 % of control (dose: 200.0 mg/kg/injection, schedule: Q01DX005 (ip), vehicle: Klucel (hydroxypropylcellulose) (HPC)).

For the molecule `C=C1C(=O)C2CCN1CC2`, the T/C is 105 % of control and 110 % of control and 113 % of control under setting [8]; 113 % of control and 116 % of control (2×) under setting [9]; 111 % of control and 116 % of control under setting [10].

As to `COB(C1CCCCC1)C1CCCCC1`, the T/C (dose: 50.0 mg/kg/injection, schedule: Q01DX009 (ip), vehicle: acetone) was 100 % of control; the T/C (dose: 100.0 mg/kg/injection, schedule: Q01DX009 (ip), vehicle: acetone) is 105 % of control; the T/C (dose: 200.0 mg/kg/injection, schedule: Q01DX009 (ip), vehicle: acetone) was 105 % of control.

Regarding `[O-][n+]1cnn2ccccc21`, the T/C is, setting by setting: under setting [5], 100 % of control; under setting [6], 106 % of control; under setting [7], 102 % of control.

Regarding `CCc1cccc(CC)c1NC(=S)NC(=O)c1ccccc1`, the T/C reads like this: under setting [2], 95 % of control; under setting [3], 96 % of control; under setting [4], 96 % of control.

With `Cn1nc(C(N)=O)c(=O)[nH]c1=O`, the T/C is 104 % of control under setting [8], 97 % of control under setting [9] and 103 % of control under setting [10].

As for `O=S(=O)(O)O.[NH-]CC[NH-].[Pt+2]`, the T/C is, setting by setting: (dose: 6.25 mg/kg/injection, schedule: Q04DX002 (ip), vehicle: saline) 168 % of control; (dose: 12.5 mg/kg/injection, schedule: Q04DX002 (ip), vehicle: saline) 97 % of control.

In the case of `COc1cc2c(c(OC)c1OC)-c1ccc(SC)c(=O)cc1C(NC(=O)c1ccccc1)CC2` (stereo not drawn), the T/C reads like this: (dose: 2.5 mg/kg/injection, schedule: Q01DX009 (ip), vehicle: Klucel (hydroxypropylcellulose) (HPC)) 155 % of control; (dose: 5.0 mg/kg/injection, schedule: Q01DX009 (ip), vehicle: Klucel (hydroxypropylcellulose) (HPC)) 117 % of control; (dose: 625.0 micrograms/kg/injection, schedule: Q01DX009 (ip), vehicle: Klucel (hydroxypropylcellulose) (HPC)) 112 % of control; (dose: 1250.0 micrograms/kg/injection, schedule: Q01DX009 (ip), vehicle: Klucel (hydroxypropylcellulose) (HPC)) 120 % of control; (dose: 10000.0 micrograms/kg/injection, schedule: Q01DX009 (ip), vehicle: Klucel (hydroxypropylcellulose) (HPC)) 90 % of control.

`COc1ccc(CSC(=S)Nc2ccc(C)c(C)c2)cc1`: the T/C is, setting by setting: (dose: 50.0 mg/kg/injection, schedule: Q01DX009 (ip), vehicle: suspension in saline) 99 % of control; (dose: 100.0 mg/kg/injection, schedule: Q01DX009 (ip), vehicle: suspension in saline) 100 % of control; (dose: 200.0 mg/kg/injection, schedule: Q01DX009 (ip), vehicle: suspension in saline) 99 % of control.
